According to patent US20010034367A1, “Compositions and methods for the treatment of cystic fibrosis” (priority 1998, published 2001):
“Also recorded” adds a separate entry of the source. Where two headings read alike, the source gives them in different places.

Key:
[1] = target: T1, ΔF508-CFTR (Homo sapiens, UniProt P13569, DEL508-508); conditions: 1 M or 10%; cited from earlier work
T1 construct: primary cultures of nasal polyp epithelia from CF patients (ΔF508 homozygous or heterozygous), or the CF bronchial epithelial cell line IB3-1; endogenous in cells; host or cells: primary nasal polyp epithelia from CF patients; IB3-1 CF bronchial epithelial cell line

[2] = target: T1, ΔF508-CFTR; conditions: IB3-1 cells; 2.5 mM; cited from earlier work
[3] = tested on: ΔF508-CFTR; conditions: CF epithelial cells; cited from earlier work
[4] = target: T1, ΔF508-CFTR; conditions: 0.1 and 2 mM; primary nasal polyp epithelia or IB3-1 cells; up to 7 days in culture; cited from earlier work
[5] = tested on: ΔF508-CFTR; conditions: cited from earlier work
[6] = in vivo; cited from earlier work
[7] = tested on: CFTR gene; conditions: cited from earlier work
[8] = in vivo; cited from earlier work; remark: listed apart in the source
[9] = tested on: fetal hemoglobin; assay: fetal hemoglobin levels in thalassemic patients; type: in vivo
From the text: Compositions administered in pulses have the surprising benefit of reducing the overall load of drug on the patient as the total amount of drug administered can be substantially less than that amount that has been therapeutically administered by conventional continuous therapy. Substantially means that there is more than an insignificant difference between the amount or concentration of a composition administered by pulsing according to the invention verses the amount or concentration administered using conventional therapy, without compromising the beneficial effect achieved to the patient. […] Typical pulsed amounts of arginine butyrate are from about 2 to about 20 g/kg/month, and preferably from about 3 to about 10 g/kg/month wherein the patient receives a total of less than about 20 kg per month, preferably less than about 15 kg per month and more preferably less than about 10 kg per month. […] Preferably, the therapeutically effective pulsed dose is less than the continuous dose, or less than one half, one third, one quarter, one fifth, one tenth or even one twentieth of the therapeutic continuous dose of the same composition or even less.

[10] = tested on: ΔF508-homozygous pancreatic acinar cell line; conditions: cited from earlier work
[11] = tested on: IB3-1 cells; conditions: respiratory epithelial cells; 1-2 mM; cited from earlier work
[12] = tested on: ΔF508-CFTR; conditions: up to 300 mM; cited from earlier work

T1 sequence (P13569 with tags, fused parts or gaps DEL508-508): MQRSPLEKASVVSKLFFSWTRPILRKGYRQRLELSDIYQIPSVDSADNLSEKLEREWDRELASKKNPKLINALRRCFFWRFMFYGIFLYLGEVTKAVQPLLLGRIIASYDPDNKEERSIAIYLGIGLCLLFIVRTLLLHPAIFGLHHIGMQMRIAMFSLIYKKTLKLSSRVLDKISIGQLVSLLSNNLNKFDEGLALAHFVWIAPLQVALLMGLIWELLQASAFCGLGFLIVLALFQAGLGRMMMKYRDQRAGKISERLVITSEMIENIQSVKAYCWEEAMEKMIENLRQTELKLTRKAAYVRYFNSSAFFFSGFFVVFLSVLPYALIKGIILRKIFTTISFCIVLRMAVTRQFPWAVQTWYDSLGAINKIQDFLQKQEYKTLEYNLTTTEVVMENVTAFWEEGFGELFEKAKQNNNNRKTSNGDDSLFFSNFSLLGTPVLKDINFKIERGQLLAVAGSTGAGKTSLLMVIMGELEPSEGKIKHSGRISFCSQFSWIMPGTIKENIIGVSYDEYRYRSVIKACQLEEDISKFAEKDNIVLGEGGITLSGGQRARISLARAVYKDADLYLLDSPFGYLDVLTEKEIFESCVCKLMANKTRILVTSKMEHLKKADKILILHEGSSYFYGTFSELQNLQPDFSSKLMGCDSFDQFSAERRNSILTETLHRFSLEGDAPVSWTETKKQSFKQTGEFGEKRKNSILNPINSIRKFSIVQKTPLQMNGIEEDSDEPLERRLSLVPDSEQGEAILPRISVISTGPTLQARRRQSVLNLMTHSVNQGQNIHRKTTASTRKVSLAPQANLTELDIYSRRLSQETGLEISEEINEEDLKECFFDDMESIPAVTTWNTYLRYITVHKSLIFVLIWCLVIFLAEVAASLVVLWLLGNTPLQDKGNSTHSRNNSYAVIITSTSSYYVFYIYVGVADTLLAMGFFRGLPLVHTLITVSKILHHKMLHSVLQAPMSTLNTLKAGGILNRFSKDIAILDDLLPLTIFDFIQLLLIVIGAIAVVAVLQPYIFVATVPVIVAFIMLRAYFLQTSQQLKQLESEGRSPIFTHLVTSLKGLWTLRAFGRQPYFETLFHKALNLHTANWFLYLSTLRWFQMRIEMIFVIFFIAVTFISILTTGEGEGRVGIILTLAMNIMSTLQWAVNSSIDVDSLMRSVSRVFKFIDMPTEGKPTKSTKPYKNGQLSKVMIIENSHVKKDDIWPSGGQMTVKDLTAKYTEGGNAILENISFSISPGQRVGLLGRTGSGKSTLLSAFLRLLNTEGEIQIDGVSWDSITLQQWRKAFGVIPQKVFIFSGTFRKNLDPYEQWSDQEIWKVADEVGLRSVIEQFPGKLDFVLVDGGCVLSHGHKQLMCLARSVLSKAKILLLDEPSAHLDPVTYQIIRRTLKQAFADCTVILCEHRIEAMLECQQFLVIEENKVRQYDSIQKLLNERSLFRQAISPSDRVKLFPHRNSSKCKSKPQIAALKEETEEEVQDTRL

OCC(O)CO [glycerol]
movement of ΔF508-CFTR from the ER to the plasma membrane [1]: facilitate movement of ΔF508-CFTR from the ER to the plasma membrane

O=C(O)CCCc1ccccc1 [4PBA, 4-phenylbutyrate]
protein kinase A-activated, linear, 10 pS chloride channels at the plasma membrane [2]: appeared at the plasma membrane
amount of ΔF508-CFTR by immunocytochemistry [3]: consistent with increasing amounts of ΔF508-CFTR; also recorded: Increased CFTR immunoreactivity
forskolin-activated chloride secretion [4]: restoration of forskolin-activated chloride secretion
CFTR immunoreactivity in immunoblot experiments ([5]; 4PBA-treated samples): increased CFTR immunoreactivity
higher molecular mass forms of CFTR (immunoblot) ([5]; IB3-1 cells, 0.1-1 mM): appearance of higher molecular mass forms of CFTR
higher molecular mass forms of CFTR (immunoblot) ([5]; primary nasal epithelia, 5 mM): appearance of higher molecular mass forms of CFTR
clinical tolerability [6]: not well tolerated
CFTR RNA levels [7]: no changes in CFTF RNA levels; also recorded: no increases in CFTR mRNA

arginine butyrate
half-life [8]: 15 min
effectiveness at continuous administration ([9]; about 2000 mg/kg patient weight, continuous): effective
benefit measured by rise in fetal hemoglobin levels ([9]; about 400 to 1500 mg/kg in pulses, thalassemic patients): surprisingly more beneficial

CCCC(=O)O [butyrate, butyric acid]
cAMP-responsive chloride secretion [10]: can induce cAMP-responsive chloride secretion
cell health, growth rate and morphology [11]: morphologic changes in IB3-1 cells, with rounding of cells and decreased growth rate
cAMP-stimulation indicative of chloride ion transport [12]: no increases in cAMP-stimulation was observed
